A word on the IC50: it is the point on the concentration scale where inhibition reaches its midpoint.

Ends that are not written are not given here.

Assay [1] has as its target T1, ACE (EC 3.4.15.1) from rabbit lungs (Oryctolagus cuniculus, UniProt P12822).
T1 construct: ACE (EC 3.4.15.1) from rabbit lungs; purchased Sigma Chemical Co. (St. Louis, MO, USA); host or cells: rabbit lung tissue
T1 sequence (P12822 34-1310): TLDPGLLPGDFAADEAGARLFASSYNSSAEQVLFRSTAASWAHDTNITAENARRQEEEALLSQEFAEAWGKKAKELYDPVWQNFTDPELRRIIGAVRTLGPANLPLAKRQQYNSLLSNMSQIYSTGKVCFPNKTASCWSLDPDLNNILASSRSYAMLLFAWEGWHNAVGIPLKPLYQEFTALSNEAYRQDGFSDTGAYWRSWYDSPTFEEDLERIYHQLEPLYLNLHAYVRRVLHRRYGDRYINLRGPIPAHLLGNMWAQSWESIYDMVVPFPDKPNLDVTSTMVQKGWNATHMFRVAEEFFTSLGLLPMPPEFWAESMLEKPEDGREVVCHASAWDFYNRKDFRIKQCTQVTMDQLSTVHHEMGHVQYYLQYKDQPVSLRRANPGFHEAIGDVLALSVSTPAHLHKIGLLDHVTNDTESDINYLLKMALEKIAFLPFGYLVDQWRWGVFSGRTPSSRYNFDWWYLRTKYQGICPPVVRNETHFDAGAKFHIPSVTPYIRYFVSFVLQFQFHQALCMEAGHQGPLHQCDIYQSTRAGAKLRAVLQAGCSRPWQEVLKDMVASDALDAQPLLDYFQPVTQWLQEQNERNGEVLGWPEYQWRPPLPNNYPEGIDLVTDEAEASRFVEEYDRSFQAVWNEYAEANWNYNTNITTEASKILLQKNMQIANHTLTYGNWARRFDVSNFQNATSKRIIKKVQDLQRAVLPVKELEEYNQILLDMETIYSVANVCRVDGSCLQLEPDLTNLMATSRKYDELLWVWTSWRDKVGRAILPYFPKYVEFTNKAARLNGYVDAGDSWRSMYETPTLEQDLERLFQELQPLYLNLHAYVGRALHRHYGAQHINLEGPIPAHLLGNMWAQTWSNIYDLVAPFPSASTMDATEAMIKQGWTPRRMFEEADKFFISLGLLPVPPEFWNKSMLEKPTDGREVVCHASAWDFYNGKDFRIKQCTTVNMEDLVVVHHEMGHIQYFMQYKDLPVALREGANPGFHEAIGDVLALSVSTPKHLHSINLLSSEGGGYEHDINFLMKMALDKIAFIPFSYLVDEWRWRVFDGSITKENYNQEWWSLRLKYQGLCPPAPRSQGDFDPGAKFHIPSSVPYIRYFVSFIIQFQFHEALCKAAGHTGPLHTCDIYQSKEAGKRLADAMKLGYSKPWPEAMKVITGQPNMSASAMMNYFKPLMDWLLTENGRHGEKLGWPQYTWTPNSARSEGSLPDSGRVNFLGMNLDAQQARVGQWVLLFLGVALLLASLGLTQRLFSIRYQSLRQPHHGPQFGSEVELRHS
The assay is described as follows: in vitro ACE inhibitory assay (HHL substrate, hippuric acid by RP-HPLC). The format is biochemical. Conditions: synthetic peptide; HHL 2.5 mM, borate buffer pH 8.3, 37 °C, HPLC read-out at 228 nm; triplicate, nonlinear regression (Graphpad Prism 6.0). The method, then: The ACEI activity assay was performed according to a previous report with a slight modification. For each assay, 30 µL 2.5 mM Hippuryl-L-histidyl-L-leucine (HHL) was used as a substrate and added by 10 µL of testing sample (peptides) at a certain concentration in 200 mM borate buffer containing 300 mM NaCl (adjusted to pH 8.3). Blank sample using 10 µL of borate buffer and was added by the same substrate. The positive control was 10 µL of 10 µM captopril. All samples were pre-incubated at 37 °C for 5 min. Subsequently, 20 µL of ACE (0.05 mU/µL) in 200 mM borate buffer was added to the blank sample, positive control and testing sample. The reaction was incubated statically at 37 °C for 30 min and then incubated thermostatically using shaker incubation (200 rpm) at 37 °C for 30 min. […] The HHL and ACE’s hydrolyzed product, hippuric acid (HA), were quantitatively analyzed using HPLC equipped with a C18 column. […] The result of HA was detected by UV detector at 228 nm. The ACE inhibition (%) was determined according to the following equation:ACE Inhibition (%) = [1 − (ΔAInhibitor/ΔABlank)] × 100
Here, ΔAInhibitor and ΔABlank were the peak areas of HA in testing and blank samples, respectively. […] The IC50 was determined using Graphpad Prism 6.0 (GraphPad Software, Inc., La Jolla, CA, USA) by a nonlinear regression of ACE inhibition result (%) caused by different concentrations of inhibitor.

Assay [2] addresses T1, ACE (EC 3.4.15.1) from rabbit lungs. The assay is described as follows: pre-incubation experiment of ACEI peptide with ACE (stability towards ACE, inhibitor type). The following applies: peptide 100 µM; for ACE inhibition activity without pre-incubation: before pre-incubation with ACE; for ACE inhibition activity after pre-incubation: pre-incubated with ACE (0.05 mU/µL) 3 h at 37 °C, then HHL 2.5 mM 1 h at 37 °C. The format is biochemical. As to the method: Since ACE is a dipeptidyl-carboxypeptidase, whether the ACEI peptides will be cleaved by ACE is a critical issue for an in vivo application. Pre-incubation of ACEI peptides with ACE before adding substrate is often used to monitor the reactivity between ACE and the ACEI peptide.
The stability of ACEI peptides towards peptidase ACE was determined according to the method described by Ruiz et al.. Briefly, ACEI peptide (at 100 µM) in 10 µL of deionized water was incubated with 20 µL of ACE (0.05 mU/µL) for 3 h at 37 °C. After that, 30 µL of 2.5 mM HHL was added and the reaction mixture was incubated at 37 °C for 1 h. The reaction was stopped by adding 60 µL 1 N HCl, and the inhibition degree of the peptide was calculated as in Section 3.5.

As to AIDPVRA [AA-7], the IC50 in assay [1] was determined as 65.8 ± 0.92 µM. Also, in assay [2] (3 h pre-incubation with ACE at 37 °C), the “decrease of inhibition activity after pre-incubation” value is reported as “about 10%”. For the same substance, in assay [2], the “ACE inhibition activity without pre-incubation” value is recorded as 68.07% and the “ACE inhibition activity after pre-incubation” value was found to be 57.89%.
Consider FDGIP [FP-5], for which, in assay [1], the half-inhibitory concentration (IC50) stood at 58.9 ± 0.68 µM. For the same substance, in assay [2], the “ACE inhibition activity without pre-incubation” value turned out to be 78.89% and the “ACE inhibition activity after pre-incubation” value came out at 76.47%.
